“Also recorded” adds a separate entry of the source. Read-outs that look alike come from different tables or passages of the source.
What was measured:
H1975 cells = assay: MTS cell viability assay, H1975; assay type: cell-based, human; conditions: for IC50: MTS 72 hours
Procedure: (§1) NSCLC cell lines (201T and H1975) were transfected with CS3D or CS3M (cyclic STAT3 mutant decoy) at concentrations ranging from 0 nM to 600 nM. Using MTS assays, cell viabilities were assessed 72 hours later. Three independent experiments were performed, using 24-well plates and 4 wells/concentration.
(§2) To determine the concentration of CS3D required to inhibit cell viability, increasing concentrations of CS3D was transfected, and after 72 hours, MTS assays were used to assess cell viability. Data were normalized to cells treated with lipofectamine alone.
(§3) Fluorescently-labeled CS3M and CS3D (with iFluor) were also produced using enzymatic ligation as described above and used to assess uptake efficiency. Transfections of the cyclic oligonucleotides were performed using Lipofectamine 2000 (Life Technologies) in opti-MEM media (Life Technologies) as follows: Cells were plated at […] confluency, and exposed to transfection media containing the respective circularized oligonucleotides for 24 hours at 37° C. Post-transfection, cell recovery was initiated in media containing 10% heat-inactivated fetal bovine serum.
(§4) Dose-response experiments assessing the relative number of metabolically active viable cells were performed by transfecting cells with increasing concentrations of CS3D or CS3M, followed by performance of MTS assays. After 72 hours, 5 mg/ml of MTS reagent was added in the plates and incubated 37° C. for 20 minutes. The plates were then read at 490 nm in a Synergy microplate reader (BioTek, Winooski, Vermont) using Gen5 2.05 software. Data obtained following treatment with C3SD or CS3M were normalized to treatment with lipofectamine alone. […] To assess induction of apoptosis in response to CS3D, H1975 and 201T cells were transfected with 100 nM of CS3M or CS3D. After twenty four hours of transfection, cells were resuspended in annexin V-binding buffer, incubated with 5 μL of propidium iodide (BD Biosciences) and subjected to flow cytometric analysis, using a BD FACS Canto II Flow Cytometer.

[1] = Toxicology studies in mice; assay type: in vivo; conditions: repeated doses up to 100 mg/kg
Source text: The novel mechanism of action combined with the stability of the circularized STAT3 decoy and its low toxicity are favorable features for clinical application. In all experiments with the STAT3 decoy, activity is compared to a mutant version with a T-A base pair replacing a G-C base pair at position 9, differing by the two nucleotides in the base pair.

c-Myc mRNA in 201T cells = assay: RT-qPCR of c-Myc mRNA after EGF, 201T; assay type: cell-based, human; conditions: single transfection, EGF 10 ng/ml 1.5 hr
H3225 cells = assay: MTS cell viability assay, H3225; assay type: cell-based, human
201T cells = assay: MTS cell viability assay, 201T; assay type: cell-based, human
Procedure: as §1, §2, §3, §4

[2] = tested on: c-Myc protein in H1975 cells; conditions: H1975, 3 hr after EGF
Procedure: (§5) c-Myc is a STAT3 target gene that is known to be activated by EGF treatment. To investigate the effects of STAT3 blockade on c-Myc expression, cells were first treated with 10 ng/ml EGF for 1.5 hr (deemed the optimal time to observe increased c-Myc RNA), 24 hr after transfection of the cyclic oligonucleotides. RT-qPCR was used to assess differences in mRNA expression in STAT3 decoy-treated versus mutant decoy-treated cells (FIGS. 5A and 5B). […] Cells were treated 24 hours post-transfection with EGF (10 ng/ml) for 1.5 hr and mRNA was harvested from wild-type (A) and mutant EGFR T790M (B) NSCLC cell lines, and mRNA expression was assessed by RT-qPCR. Relative mRNA expression was normalized to GAPDH mRNA levels as an internal control. Statistical significance was determined as *P<0.05. […] Cells were treated 24 hours post-transfection with EGF (10 ng/ml) for 1.5 hr and mRNA was harvested from mutant EGFR T790M (B) NSCLC cell lines. […] Cells were is treated as in FIGS. 5A and 5B, and 3 hr after EGF treatment, lysates were collected from wild-type 201T (left) and mutant EGFR […] H1975 (right) NSCLC cell lines.

[3] = tested on: STAT1 target genes (IKBKE, IFT2, IFT1, IRF7) and NFκB target genes; conditions: CS3D compared to CS3M treated cells
Procedure: as §5

[4] = tested on: c-Myc protein in 201T cells; conditions: 3 hr after EGF, compared to CS3M or lipofectamine alone
Procedure: as §5

NSCLC cell lines = conditions: each NSCLC cell line, regardless of EGFR or KRAS mutation status; one 4-hr transfection
Procedure: as §1, §2
as §4, with “After twenty four hours of transfection, cells were resuspended in annexin V-binding buffer, incubated with 5 μL of propidium iodide (BD Biosciences) and subjected to flow cytometric analysis, using a BD FACS Canto II Flow Cytometer.” left out

CS3D (DNA GATTTACGGGAAATGCSCATTTCCC; cyclic decoy with two hexaethylene glycol linkers, further chemistry not given here)
inhibition in proliferation (H1975 cells; 0.3 μM transfection, H1975, relative to CS3M): 50%
IC50 (H1975 cells; H1975 (mutant EGFR), read-out: IC50): ~300 nM
IC50 (H1975 cells; H1975, EGFR mutant (L858R/T790M), KRAS WT, read-out: CS3D IC50): 300 nM
toxicology: body weight, organ histology, clinical chemistry [1]: no significant effects on body weight, organ histology, or clinical chemistry; also recorded: no appreciable changes in blood chemistry, weight or organ structure
inhibition in mRNA level of c-Myc (c-Myc mRNA in 201T cells): 50%
IC50 (H3225 cells): 300 nM
inhibition in proliferation (201T cells; 0.3 μM transfection, 201T, relative to CS3M): 50%
IC50 (201T cells; 201T (WT EGFR), MTS 72 hours, read-out: IC50): ~300 nM
IC50 (201T cells; 201T, EGFR WT, KRAS WT, MTS at 72 hours after transfection, read-out: CS3D IC50): 300 nM
reduction in c-Myc protein expression [2]: 40%
mRNA expression of STAT1 and NFκB target genes [3]: no decrease in mRNA expression level
reduction in c-Myc protein expression [4]: 31%
IC50 (NSCLC cell lines): ~300 nM

Reference: patent US11932850B2, “Cancer chemoprevention with STAT3 blockers” (Jill M. Siegfried, LLC, priority 2018, dated 2024)
